This is an account of results in BindingDB's records for doi:10.3109/14756360903049059 (China Pharmaceutical University, 2010).

Each structure is given as a SMILES string.

For the experiment, the target named is T1, 3-oxoacyl-[acyl-carrier-protein] synthase 3 (Mycobacterium tuberculosis (strain ATCC 25618 / H37Rv), UniProt P9WNG3).
T1 sequence (P9WNG3 whole entry): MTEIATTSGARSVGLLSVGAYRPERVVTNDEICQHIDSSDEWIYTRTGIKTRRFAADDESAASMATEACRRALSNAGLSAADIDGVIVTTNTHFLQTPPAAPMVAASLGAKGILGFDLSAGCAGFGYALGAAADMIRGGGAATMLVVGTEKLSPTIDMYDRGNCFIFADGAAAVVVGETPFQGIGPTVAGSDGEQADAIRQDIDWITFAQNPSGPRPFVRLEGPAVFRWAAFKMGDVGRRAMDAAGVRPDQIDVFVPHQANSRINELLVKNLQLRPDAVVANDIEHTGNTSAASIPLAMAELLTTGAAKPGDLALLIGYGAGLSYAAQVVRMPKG
Description: 3D-QSAR. On the procedure: The biological activities of the compounds were evaluated in the same laboratory. Biological activities measured as IC50 were converted to pIC50 (−log(IC50)) for use in the 3D-QSAR study.
Consider `COc1ccc(C2(C)SC(=O)C(C)=C2O)cc1` (centres undefined) [mtFabH inhibitor, 13], for which half-maximal inhibition (IC50) required 500 µM. `COC(=O)c1ccc(CC#CC2(C)SC(=O)C(C)=C2O)cc1` (centres undefined) [mtFabH inhibitor, 5] displayed an IC50 of 74 µM. Turning to `CC1=C(O)C(C)(C#CCc2ccc([N+](=O)[O-])cc2)SC1=O` (centres undefined) [mtFabH inhibitor, 6], the IC50 worked out at 34 µM. Take `CC1=C(O)C(C)(Cc2cccc(C(=O)c3ccccc3)c2)SC1=O` (centres undefined) [mtFabH inhibitor, 40]: the IC50 came to 283 µM. Against the preceding compound, the IC50 is about 8.3-fold higher. For `CCCCCCCCCCCCCC1(C)SC(=O)C(C)=C1O` (centres undefined) [mtFabH inhibitor, 26], the midpoint of inhibition, the IC50, lay at 80 µM.

`CC(=O)Nc1cccc(-c2ccc(CC3(C)SC(=O)C(C)=C3O)cc2)c1` (centres undefined) [mtFabH inhibitor, 25] yielded an IC50 of 119 µM.

As for `CC1=C(O)C(C)(Cc2ccc(C(F)(F)F)cc2)SC1=O` (centres undefined) [mtFabH inhibitor, 27], the IC50 was 100 µM. With `CC(=O)c1ccc(C#CC2(C)SC(=O)C(C)=C2O)cc1` (centres undefined) [mtFabH inhibitor, 3] the figure was 4 µM; with `COc1ccc(CC2(C)SC(=O)C(C)=C2O)cc1` (centres undefined) [mtFabH inhibitor, 12], 155 µM. The compound `CC1=C(O)C(C)(C#Cc2ccccc2C#N)SC1=O` (centres undefined) [mtFabH inhibitor, 8] displayed an IC50 of 48 µM. As to `C#CC1(C)SC(=O)C(C)=C1O` (centres undefined) [mtFabH inhibitor, 2], the IC50 came out at 100 µM. Compound `CC1=C(O)C(C)(C#CCc2ccc(C#N)cc2)SC1=O` (centres undefined) [mtFabH inhibitor, 7] registered an IC50 of 7 µM. For the compound `CC1=C(O)C(C)(Cc2ccccc2)SC1=O` (centres undefined) [mtFabH inhibitor, 9], it took 250 µM to reach half-maximal inhibition (IC50).

In the case of `CC(=O)c1ccc(C#CC2(C)SC(=O)C(C)=C2O)cc1O` (centres undefined) [mtFabH inhibitor, 4], inhibition was half-maximal at 7 µM (IC50).

In general, IC50 refers to the midpoint of a concentration-inhibition curve.
